What was measured:
Test in all cases: relative viability (nuclei count vs DMSO), 5 days (fraction); higher = more cells survive
Ponatinib + Dasatinib = compound: Cc1ccc(C(=O)Nc2ccc(CN3CCN(C)CC3)c(C(F)(F)F)c2)cc1C#Cc1cnc2cccnn12 [Ponatinib] + Cc1nc(Nc2ncc(C(=O)Nc3c(C)cccc3Cl)s2)cc(N2CCN(CCO)CC2)n1 [Dasatinib] (partner 0.075 µM)
Summary of the method: (§1)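 Nuclei were stained with Hoechst during a one-step fixation (final 0.05% Triton X-100, 1% formaldehyde, 1 ug/ml Hoechst) carried out 5 days after dosing, then counted on 4× images. The cells, lung cancer lines in 1536-well plates, had been dosed by pin tool the day after seeding with one drug alone or a fixed anchor-drug dose plus five library-drug doses (not always all listed) in √10 steps. Relative viability is the nuclei count in treated wells divided by that in vehicle wells, and each value is the median of duplicate plates.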

Pazopanib + Luminespib = compound: Cc1ccc(Nc2nccc(N(C)c3ccc4c(C)n(C)nc4c3)n2)cc1S(N)(=O)=O [Pazopanib] + CCNC(=O)c1noc(-c2cc(C(C)C)c(O)cc2O)c1-c1ccc(CN2CCOCC2)cc1 [Luminespib] (partner 0.01 µM)
Summary of the method: as §1

Pazopanib + Alpelisib = compound: Cc1ccc(Nc2nccc(N(C)c3ccc4c(C)n(C)nc4c3)n2)cc1S(N)(=O)=O [Pazopanib] + Cc1nc(NC(=O)N2CCC[C@H]2C(N)=O)sc1-c1ccnc(C(C)(C)C(F)(F)F)c1 [Alpelisib] (partner 2 µM)
Summary of the method: as §1

Pazopanib + Decitabine = compound: Cc1ccc(Nc2nccc(N(C)c3ccc4c(C)n(C)nc4c3)n2)cc1S(N)(=O)=O [Pazopanib] + Nc1ncn([C@H]2C[C@H](O)[C@@H](CO)O2)c(=O)n1 [Decitabine] (partner 2 µM)
Summary of the method: as §1

Cell Line: UMC-11
- relative viability (Ponatinib + Dasatinib; first compound 0.002 µM): 0.465
- relative viability (Ponatinib + Dasatinib; first compound 0.006325 µM): 0.451
- relative viability (Ponatinib + Dasatinib; first compound 0.06325 µM): 0.51
- relative viability (Ponatinib + Dasatinib; first compound 0.2 µM): 0.465
- relative viability (Pazopanib + Luminespib; first compound 0.01 µM): 1.08
- relative viability (Pazopanib + Luminespib; first compound 0.03162 µM): 0.994
- relative viability (Pazopanib + Luminespib; first compound 0.1 µM): 1.06
- relative viability (Pazopanib + Luminespib; first compound 0.3162 µM): 0.98
- relative viability (Pazopanib + Luminespib; first compound 1 µM): 1.09
- relative viability (Pazopanib + Alpelisib; first compound 0.01 µM): 1.02
- relative viability (Pazopanib + Alpelisib; first compound 0.03162 µM): 1.05
- relative viability (Pazopanib + Alpelisib; first compound 0.1 µM): 0.804
- relative viability (Pazopanib + Alpelisib; first compound 0.3162 µM): 0.948
- relative viability (Pazopanib + Alpelisib; first compound 1 µM): 1.12
- relative viability (Pazopanib + Decitabine; first compound 0.01 µM): 0.598
- relative viability (Pazopanib + Decitabine; first compound 0.03162 µM): 0.686
- relative viability (Pazopanib + Decitabine; first compound 0.1 µM): 0.616
- relative viability (Pazopanib + Decitabine; first compound 0.3162 µM): 0.578
- relative viability (Pazopanib + Decitabine; first compound 1 µM): 0.49

Source: the supplement of paper PMC10307832
